Patent publication US7235590B2, “Use of treosulfan and derivatives thereof for treating multiple sclerosis” (Medac Gesellschaft fur Klinische Spezialpraparate mbH, priority 2002, dated 2007)

Columns and labels:
[1] = system: myelin oligodendrocyte glycoprotein (MOG) induced experimental autoimmune encephalomyelitis (EAE); assay: MOG-induced experimental autoimmune encephalomyelitis (EAE) in DA rats, clinical course; type: in vivo
Description: Using the example of experimental autoimmune encephalomyelitis (EAE) which is recognized as animal model of human MS, the effectiveness of treosulfan was first of all examined. […] In the first trials, treosulfan was applied on the day of immunisation, in another on day 14 following immunisation.
Firstly, several trials for the determination of the dosage of treosulfan were carried out in DA rats, a strain of rat particularly suitable for these trials (Dark Agouti strain) with myelin oligodendrocyte glycoprotein (MOG) induced experimental autoimmune encephalomyelitis (EAE). These rats represent an excellent model of multiple sclerosis (MS) since the clinical development and the lesion morphology (inflammation, demyelination, loss of axons and nerve cells) of MS can be reproduced.
DA rats (10 animals per group) were treated either with a single dose of treosulfan (0.5 g/kg bodyweight) on the day of immunisation (p.i.) or with a three times repeated treosulfan application (0.5 g/kg bodyweight per application) at intervals of 1 day. PBS (phosphate buffered salt solution) was administered as control. In a further experiment, treosulfan (single dose: 0.5 g/kg bodyweight) was administered 2 weeks after immunisation. The total number of rats was 30 animals. The animals were observed clinically for the period of 40 days after initiation of the experiment and regularly examined neurologically.
FIGS. 3 and/or 3a are different representations of the experiment in which treosulfan was administered on day 14 following immunisation.

secondary progressive MS = assay: Healing trial on patients with secondary progressive MS; type: in vivo
Description: In the course of a first healing trial, 5 patients suffering from secondary progressive MS (SPMS patients) were treated. They consisted of 3 men […]/62 and two women […].
As part of the therapy, treosulfan was administered in the form of a solution suitable for intravenous application (infusion). The patients were treated with a dosage of 5 g/m^2 body surface in each case at intervals of 4 weeks in the first quarter. Subsequently, a single treosulfan application (5 g/m^2 of treosulfan) took place per quarter.
In the case of two patients, an improvement of the ambulation index (S. L. Hauser et al. N. Engl. J. Med. 308 (1983) 173–178) was observed.

interferon-β (IFN-β) = assay: Quantitative PCR for IFN in MOG-EAE rats; type: in vivo, DA rats; settings: treatment on day 0
Source text: (§1) In a second experiment, five rats each were characterised immunologically on day 12 and day 40 (total number of animals: n=30) following the immunisation with respect to T and B cell response (EliSpot (Autoimmun Diagnostika GmbH, D-72479 Strassberg) for IFN-secreting cells, proliferations, auto-antibody analysis). (R. Weissert et al., J. Immunol. 160 […], 681–690).
(§2) It was, moreover, observed that the interleukin 12 (IL-12) and/or interferon-β (IFN-β) values were reduced in the treosulfan group (FIG. 16, 17). (R. Weissert et al., J. Immunol. 166 (2001), 7588–7599).
FIG. 16: Quantitative PCR for IFN-treatment with treosulfan on day 0.

interleukin 12 (IL-12) = assay: Quantitative PCR for IL-12 in MOG-EAE rats; type: in vivo, DA rats; settings: treatment on day 0
Source text: as §1, §2
FIG. 17: Quantitative PCR for IL-12 treatment with treosulfan on day 0.

[2] = Tolerance and haematological characterisation in MOG-EAE rats; type: in vivo, DA rats
Source text: To analyse the haematological status, blood was taken from the rats on day 0, day 5, day 14, and day 53 following immunisation and a determination of haemoglobin (Hb), reticulocytes, leukocytes, thrombocytes and crythrocytes carried out.
The tolerance of treosulfan is illustration in FIGS. 5–15.

| SMILES | effectiveness compared with the treosulfan group ([1]; same trial conditions, single i.p. treatment on the day of immunisation) | patients with improvement of the ambulation index (secondary progressive MS; 5 SPMS patients, 5 g/m^2 body surface i.v. infusion every 4 weeks in the first quarter, then once per quarter) | substance-related secondary effects (secondary progressive MS; 5 SPMS patients, 5 g/m^2 i.v. infusion) | disease development in MS patients (secondary progressive MS; summary statement) | tolerance (secondary progressive MS; summary statement) | interferon-β (IFN-β) values (interferon-β (IFN-β)) | interleukin 12 (IL-12) values (interleukin 12 (IL-12)) | changes to the blood picture (Hb, reticulocytes, leukocytes, thrombocytes, erythrocytes) ([2]; blood taken day 0, 5, 14 and 53 following immunisation) | weight ([2]; single dose of 1 g/kg i.p., at the beginning of the treatment) | effectiveness in comparison with the untreated control group ([1]; FIGS. 1-3a) | animals still alive ([1]; day 53, untreated control group 2 out of 8) | suppression of the disease ([1]; single dose of 1 g/kg bodyweight, intraperitoneal) | disease course in contrast to untreated control group ([1]; treosulfan applied on day 14 following immunisation) |
| --- | --- | --- | --- | --- | --- | --- | --- | --- | --- | --- | --- | --- | --- |
| O=C1c2c(O)ccc(O)c2C(=O)c2c(NCCNCCO)ccc(NCCNCCO)c21 [mitoxantrone] | no greater effectiveness | – | – | – | – | – | – | – | – | – | – | – | – |
| CS(=O)(=O)OC[C@H](O)[C@@H](O)COS(C)(=O)=O [treosulfan, (2S,3S)-threitol-1,4-bismethane sulphonate] | – | two | No substance-related secondary effects were observed | clear improvement | extremely well tolerated | reduced | reduced | not documented | substantial decrease in weight | confirm first of all the effectiveness | 7 out of 8 | capable of suppressing the disease | stabilisation |
